Patent publication US20230087118A1, “IMIDAZO[1,2-a][sequence] DERIVATIVES AND THEIR USE IN THE TREATMENT OF DISEASE” (priority 2019, published 2023)

Target: T1, IRAK4 (Homo sapiens, UniProt Q9NWZ3)
T1 sequence (Q9NWZ3 1-460): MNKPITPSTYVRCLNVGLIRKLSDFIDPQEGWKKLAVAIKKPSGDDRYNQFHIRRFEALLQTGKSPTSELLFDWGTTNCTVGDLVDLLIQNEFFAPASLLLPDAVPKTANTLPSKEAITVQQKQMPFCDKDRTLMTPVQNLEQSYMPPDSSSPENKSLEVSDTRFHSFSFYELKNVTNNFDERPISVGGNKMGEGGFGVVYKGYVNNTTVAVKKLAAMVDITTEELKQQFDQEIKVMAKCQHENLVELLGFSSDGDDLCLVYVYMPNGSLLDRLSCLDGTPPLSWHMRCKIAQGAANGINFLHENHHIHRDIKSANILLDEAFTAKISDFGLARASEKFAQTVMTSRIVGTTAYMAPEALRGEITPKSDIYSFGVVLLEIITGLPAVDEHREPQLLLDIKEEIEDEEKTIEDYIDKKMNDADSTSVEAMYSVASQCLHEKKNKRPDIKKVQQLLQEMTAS
Experiment: biochemical

| SMILES | IC50 |
| --- | --- |
| CC(C)Oc1nc(C(=O)Nc2ccnc3ccnn23)cn2cc(C34COC(C)(C3)C4)nc12 [Example 400, 8-Isopropoxy-2-(1-methyl-2-oxabicyclo[2.1.1]hexan-4-yl)-N-(pyrazolo[1,5-a]pyrimidin-7-yl)imidazo[1,2-a]pyrazine-6-carboxamide] | 13.6 nM |
| CC(C)Oc1cc2nc(C34CC(C#N)(C3)C4)cn2cc1C(=O)Nc1cccc(C(F)F)n1 [Example 402, 2-(3-Cyanobicyclo[1.1.1]pentan-1-yl)-N-(6-(difluoromethyl)pyridin-2-yl)-7-isopropoxyimidazo[1,2-a]pyridine-6-carboxamide] | 0.2 nM |
| CC12CC(c3cn4cc(C(=O)Nc5cnn6cccnc56)c(OC5CCC5)cc4n3)(CO1)C2 [Example 406, 7-Cyclobutoxy-2-(1-methyl-2-oxabicyclo[2.1.1]hexan-4-yl)-N-(pyrazolo[1,5-a]pyrimidin-3-yl)imidazo[1,2-a]pyridine-6-carboxamide] | 0.3 nM |
| CC(C)Oc1nc2nc(C34COC(C)(C3)C4)cn2cc1C(=O)Nc1cccn2cnnc12 [Example 409, N-([1,2,4]triazolo[4,3-a]pyridin-8-yl)-7-isopropoxy-2-(1-methyl-2-oxabicyclo[2.1.1]hexan-4-yl)imidazo[1,2-a]pyrimidine-6-carboxamide] | 1.5 nM |
| CC(C)Oc1nc2nc(C34COC(C)(C3)C4)cn2cc1C(=O)Nc1cccc2ncnn12 [Example 410, N-([1,2,4]triazolo[1,5-a]pyridin-5-yl)-7-isopropoxy-2-(1-methyl-2-oxabicyclo[2.1.1]hexan-4-yl)imidazo[1,2-a]pyrimidine-6-carboxamide] | 0.2 nM |
| CC(C)Oc1nc2nc(C34COC(C)(C3)C4)cn2cc1C(=O)Nc1cccc(OC(F)(F)F)n1 [Example 412, 7-Isopropoxy-2-(1-methyl-2-oxabicyclo[2.1.1]hexan-4-yl)-N-(6-(trifluoromethoxy)pyridin-2-yl)imidazo[1,2-a]pyrimidine-6-carboxamide] | 1.2 nM |

Further lines, results first:

| IC50 | SMILES |
| --- | --- |
| 0.2 nM | COc1cccn2ncc(NC(=O)c3cn4cc(C56COC(C)(C5)C6)nc4c(OC(C)C)n3)c12 [Example 401, 8-Isopropoxy-N-(4-methoxypyrazolo[1,5-a]pyridin-3-yl)-2-(1-methyl-2-oxabicyclo[2.1.1]hexan-4-yl)imidazo[1,2-a]pyrazine-6-carboxamide] |
| 0.8 nM | COc1ncccc1NC(=O)c1cn2cc(C34CC(C#N)(C3)C4)nc2cc1OC(C)C [Example 403, 2-(3-Cyanobicyclo[1.1.1]pentan-1-yl)-7-isopropoxy-N-(2-methoxypyridin-3-yl)imidazo[1,2-a]pyridine-6-carboxamide] |
| 7.7 nM | CC(C)Oc1cc2nc(C34CC(C#N)(C3)C4)cn2cc1C(=O)Nc1ccn(C)n1 [Example 404, 2-(3-Cyanobicyclo[1.1.1]pentan-1-yl)-7-isopropoxy-N-(1-methyl-1H-pyrazol-3-yl)imidazo[1,2-a]pyridine-6-carboxamide] |
| 5.2 nM | COc1cnc2c(NC(=O)c3cn4cc(C56COC(C)(C5)C6)nc4c(F)c3OC(C)C)cnn2c1 [Example 407, 8-Fluoro-7-isopropoxy-N-(6-methoxypyrazolo[1,5-a]pyrimidin-3-yl)-2-(1-methyl-2-oxabicyclo[2.1.1]hexan-4-yl)imidazo[1,2-a]pyridine-6-carboxamide] |
| 0.7 nM | CC(C)Oc1nc2nc(C34COC(C)(C3)C4)cn2cc1C(=O)Nc1cnn2cccc(F)c12 [Example 408, N-(4-fluoropyrazolo[1,5-a]pyridin-3-yl)-7-isopropoxy-2-(1-methyl-2-oxabicyclo[2.1.1]hexan-4-yl)imidazo[1,2-a]pyrimidine-6-carboxamide] |
| 0.8 nM | CC(C)Oc1nc2nc(C34COC(C)(C3)C4)cn2cc1C(=O)Nc1cccc(OC(F)F)n1 [Example 411, N-(6-(difluoromethoxy)pyridin-2-yl)-7-isopropoxy-2-(1-methyl-2-oxabicyclo[2.1.1]hexan-4-yl)imidazo[1,2-a]pyrimidine-6-carboxamide] |
